Values after ≈ are worked out from the molar mass of the structure shown. Values joined by “and” are separate entries in the source; they are usually repeats but may differ in a detail not shown here. Identical values can stand only once. Like-named read-outs stand apart in the source and are kept apart here.
Key:
Type in all cases: cell-based
[1] = test system: clinical isolates of C. trachomatis; assay: microbe, parasite or virus in culture
[2] = test system: C. trachomatis B,D,E,F,G,H,I,Ia,J,K (human genital serovars); assay: Anti-bacterial susceptibilities of reference strains; details: Chlamydia trachomatis; McCoy cells; read-out: MIC (microtiter)
[3] = test system: C. trachomatis serovar D strain; assay: Comparison of MIC, MCC, MCC3 and MCC3/MIC ratio in McCoy cells; details: for MIC: Chlamydia trachomatis
[4] = test system: C. pneumoniae TW-183, CWL-029; assay: Anti-bacterial susceptibilities of reference strains; details: for MIC: Chlamydia pneumoniae, HEp-2 cells, read-out: MIC (microtiter)
[5] = test system: C. trachomatis L2 (LGV serovar); assay: as above; details: Chlamydia trachomatis; McCoy cells; read-out: MIC (microtiter)
C. psittaci 6BC, GPIC = assay: microbe, parasite or virus in culture; details: Chlamydia psittaci, read-out: MIC (microtiter)
[6] = test system: Chlamydia trachomatis clinical isolates; assay: Anti-bacterial susceptibilities of clinical isolates; details: for MIC: Chlamydia trachomatis, read-out: MIC (microtiter)
[7] = test system: C. trachomatis MoPn (mouse pneumonitis strain); assay: Anti-bacterial susceptibilities of reference strains; details: Chlamydia trachomatis; McCoy cells; read-out: MIC (microtiter)
[8] = test system: C. trachomatis serovar D (strain UW-3); assay: Effect of inoculum size on doxycycline MIC, MCC and MCC3
[9] = test system: Chlamydia trachomatis serovar D; assay: microbe, parasite or virus in culture
[10] = CDC strains sensitive controls (n = 2), McCoy cells
[11] = CDC strains treatment failures (n = 2), multi-drug resistant at CDC, McCoy cells
[12] = CDC strains treatment failures (n = 2), McCoy cells
[13] = Recurrent same serovar isolates (n = 6), McCoy cells
[14] = Single isolates (n = 30), McCoy cells
[15] = Treatment failure isolates (n = 6), McCoy cells
[16] = inoculum 0.3125 × 10^3 IFU/well

CCCN1CCN(c2cc(O)c3nc4c5c6c7c(C)c(O)c5c(=O)c(c-4oc3c2)NC(=O)/C(C)=C\C=C\[C@H](C)[C@H](O)[C@@H](C)[C@@H](O)[C@@H](C)[C@H](OC(C)=O)[C@H](C)[C@@H](OC)/C=C/O[C@@](C)(O7)C6=O)CC1 [KRM-1657]
MCC3/MIC [1]: 16
MIC [1]: 0.064 to 0.125 ng/mL
anti-chlamydial activity in words [1]: highly active

C[C@H]1c2cccc(O)c2C(=O)C2=C(O)[C@]3(O)C(=O)C(C(N)=O)=C(O)[C@@H](N(C)C)[C@@H]3[C@@H](O)[C@@H]21 [Doxycycline, doxycycline]
MIC [2]: 64 ng/mL (≈ 144 nM)
MCC3/MIC [3]: 1000
MIC ([3]; McCoy cells, read-out: MIC): 64 ng/mL
MCC ([3]; McCoy cells): 8 µg/mL
MCC3 ([3]; McCoy cells): 64 µg/mL
MCC1 (shell vial) [4]: 4 to 8 µg/mL
MCC3 (shell vial) [4]: 32 to 64 µg/mL
MCC (microtiter) [4]: 0.125 µg/mL
MIC [4]: 64 ng/mL (≈ 144 nM)
MCC3/MIC [1]: 1000
MIC ([1]; Chlamydia trachomatis): 64 to 125 ng/mL (≈ 144 to 281 nM)
MIC [5]: 64 ng/mL (≈ 144 nM)
MIC (C. psittaci 6BC, GPIC): 64 ng/mL (≈ 144 nM)
MCC3 (shell vial) [6, 10]: 16 to 64 µg/mL
MCC (microtiter) [6, 10]: 0.125 to 0.25 µg/mL
MCC (shell vial) [6, 10]: >8 µg/mL
MIC (microtiter) [6, 10]: 64 to 125 ng/mL
MIC (microtiter) [6, 11]: 64 to 125 ng/mL
MCC3 (shell vial) [6, 12]: 16 to 64 µg/mL
MCC (microtiter) [6, 12]: 0.125 to 0.25 µg/mL
MCC (shell vial) [6, 12]: >8 µg/mL
MIC [6]: 64 to 125 ng/mL (≈ 144 to 281 nM)
MCC3 (shell vial) [6, 13]: 16 to 64 µg/mL
MCC (microtiter) [6, 13]: 0.125 to 0.25 µg/mL
MCC (shell vial) [6, 13]: >8 µg/mL
MCC3 (shell vial) [6, 14]: 16 to 64 µg/mL
MCC (microtiter) [6, 14]: 0.125 to 0.25 µg/mL
MCC (shell vial) [6, 14]: >8 µg/mL
MIC (microtiter) [6, 14]: 64 to 125 ng/mL
MCC3 (shell vial) [6, 15]: 16 to 64 µg/mL
MCC (microtiter) [6, 15]: 0.125 to 0.25 µg/mL
MCC (shell vial) [6, 15]: >8 µg/mL
MIC (microtiter) [6, 15]: 64 to 125 ng/mL
MIC [7]: 64 ng/mL (≈ 144 nM)
MIC ([8]; Chlamydia trachomatis, inoculum 80 × 10^3 IFU/well, read-out: MIC): 64 ng/mL (≈ 144 nM)
MCC [8, 16]: 0.064 µg/mL
MCC3 [8, 16]: 0.064 µg/mL
MIC [8, 16]: 64 ng/mL (≈ 144 nM)
MCC ([8]; inoculum 0.625 × 10^3 IFU/well): 0.064 µg/mL
MCC3 ([8]; inoculum 0.625 × 10^3 IFU/well): 0.064 µg/mL
MIC ([8]; inoculum 0.625 × 10^3 IFU/well): 64 ng/mL (≈ 144 nM)
MCC ([8]; inoculum 5 × 10^3 IFU/well): >8 µg/mL
MCC3 ([8]; inoculum 5 × 10^3 IFU/well): 64 µg/mL
MIC ([8]; inoculum 5 × 10^3 IFU/well): 64 ng/mL (≈ 144 nM)
MCC ([8]; inoculum 10 × 10^3 IFU/well): >8 µg/mL
MCC3 ([8]; inoculum 10 × 10^3 IFU/well): 64 µg/mL
MIC ([8]; inoculum 10 × 10^3 IFU/well): 64 ng/mL (≈ 144 nM)
MCC ([8]; inoculum 20 × 10^3 IFU/well): >8 µg/mL
MCC3 ([8]; inoculum 20 × 10^3 IFU/well): 64 µg/mL
MIC ([8]; inoculum 20 × 10^3 IFU/well): 64 ng/mL (≈ 144 nM)
MCC ([8]; inoculum 40 × 10^3 IFU/well): >8 µg/mL
MCC3 ([8]; inoculum 40 × 10^3 IFU/well): 64 µg/mL
MIC ([8]; inoculum 40 × 10^3 IFU/well): 64 ng/mL (≈ 144 nM)
MCC ([8]; inoculum 80 × 10^3 IFU/well): >8 µg/mL
MCC3 ([8]; inoculum 80 × 10^3 IFU/well): 64 µg/mL
MCC ([8]; inoculum 160 × 10^3 IFU/well): >8 µg/mL
MCC3 ([8]; inoculum 160 × 10^3 IFU/well): 64 µg/mL
MIC ([8]; inoculum 160 × 10^3 IFU/well): 64 ng/mL (≈ 144 nM)
MCC ([8]; inoculum 320 × 10^3 IFU/well): >8 µg/mL
MCC3 ([8]; inoculum 320 × 10^3 IFU/well): 64 µg/mL
MIC ([8]; inoculum 320 × 10^3 IFU/well): 64 ng/mL (≈ 144 nM)
MCC ([8]; inoculum […] 10^3 IFU/well): 0.064 µg/mL
MCC3 ([8]; inoculum […] 10^3 IFU/well): 0.064 µg/mL
MIC ([8]; inoculum […] 10^3 IFU/well): 64 ng/mL (≈ 144 nM)

CO[C@H]1/C=C/O[C@@]2(C)Oc3c(C)c(O)c4c(O)c(c(/C=N/N5CCN(C)CC5)c(O)c4c3C2=O)NC(=O)/C(C)=C\C=C\[C@H](C)[C@H](O)[C@@H](C)[C@@H](O)[C@@H](C)[C@H](OC(C)=O)[C@@H]1C [Rifampin, rifampin]
MIC ([3]; McCoy cells, read-out: MIC): 16 ng/mL
MCC ([3]; McCoy cells): 0.5 µg/mL
MCC3 ([3]; McCoy cells): 4 µg/mL
MCC3/MIC ([3]; McCoy cells): 250

CC1COc2c(N3CCN(C)CC3)c(F)cc3c(=O)c(C(=O)O)cn1c23 (stereo not drawn) [Ofloxacin, ofloxacin]
MIC [2]: 500 ng/mL (≈ 1380 nM)
MCC3 [3]: 128 µg/mL
MCC3/MIC [3]: 128
MIC ([3]; McCoy cells, read-out: MIC): 1000 ng/mL
MCC ([3]; McCoy cells): 16 µg/mL
MCC1 (shell vial) [4]: >8 µg/mL
MCC3 (shell vial) [4]: >128 µg/mL
MCC (microtiter) [4]: 1.0 µg/mL
MIC [4]: 500 ng/mL (≈ 1380 nM)
MCC3/MIC [1]: 128
MIC ([1]; Chlamydia trachomatis): 1000 to 2000 ng/mL (≈ 2770 to 5530 nM)
MIC [5]: 500 ng/mL (≈ 1380 nM)
MCC [9]: >8 µg/mL and 4 µg/mL and 8 µg/mL
MIC (C. psittaci 6BC, GPIC): 500 ng/mL (≈ 1380 nM)
MCC3 (shell vial) [6, 10]: >128 µg/mL
MCC (microtiter) [6, 10]: 1 to 2 µg/mL
MCC (shell vial) [6, 10]: >8 µg/mL
MIC (microtiter) [6, 10]: 500 to 1000 ng/mL
MIC (microtiter) [6, 11]: 500 to 1000 ng/mL
MCC3 (shell vial) [6, 12]: >128 µg/mL
MCC (microtiter) [6, 12]: 1 to 2 µg/mL
MCC (shell vial) [6, 12]: >8 µg/mL
MIC [6, 13]: 500 to 1000 ng/mL (≈ 1380 to 2770 nM)
MCC3 (shell vial) [6, 13]: >128 µg/mL
MCC (microtiter) [6, 13]: 1 to 2 µg/mL
MCC (shell vial) [6, 13]: >8 µg/mL
MCC3 (shell vial) [6, 14]: >128 µg/mL
MCC (microtiter) [6, 14]: 1 to 2 µg/mL
MCC (shell vial) [6, 14]: >8 µg/mL
MIC (microtiter) [6, 14]: 500 to 1000 ng/mL
MCC3 (shell vial) [6, 15]: >128 µg/mL
MCC (microtiter) [6, 15]: 1 to 2 µg/mL
MCC (shell vial) [6, 15]: >8 µg/mL
MIC (microtiter) [6, 15]: 500 to 1000 ng/mL
MIC [7]: 500 ng/mL (≈ 1380 nM)

CC[C@H]1OC(=O)[C@H](C)[C@@H](O[C@H]2C[C@@](C)(OC)[C@@H](O)[C@H](C)O2)[C@H](C)[C@@H](O[C@@H]2O[C@H](C)C[C@H](N(C)C)[C@H]2O)[C@](C)(O)C[C@@H](C)C(=O)[C@H](C)[C@@H](O)[C@]1(C)O [Erythromycin, erythromycin]
MIC ([3]; McCoy cells, read-out: MIC): 500 ng/mL
MCC ([3]; McCoy cells): 8 µg/mL

CO[C@H]1/C=C/O[C@@]2(C)Oc3c(C)c(O)c4c(=O)c(c5oc6cc(N7CCN(CC(C)C)CC7)cc(O)c6nc-5c4c3C2=O)NC(=O)/C(C)=C\C=C\[C@H](C)[C@H](O)[C@@H](C)[C@@H](O)[C@@H](C)[C@H](OC(C)=O)[C@@H]1C [Rifalazil, rifalazil]
MCC3/MIC [3]: 16
MIC ([3]; McCoy cells, read-out: MIC): 0.25 ng/mL
MCC ([3]; McCoy cells): 0.002 µg/mL
MCC3 ([3]; McCoy cells): 0.004 µg/mL
anti-chlamydial activity in words ([3]; McCoy cells, compared with other drugs): highly active
MCC3/MIC [1]: 16
anti-chlamydial activity in words [1]: highly active
MIC ([1]; Chlamydia trachomatis): 0.25 to 5 ng/mL (≈ 0.266 to 5.31 nM)

CC[C@H]1OC(=O)[C@H](C)[C@@H](O[C@H]2C[C@@](C)(OC)[C@@H](O)[C@H](C)O2)[C@H](C)[C@@H](O[C@@H]2O[C@H](C)C[C@H](N(C)C)[C@H]2O)[C@](C)(O)C[C@@H](C)CN(C)[C@H](C)[C@@H](O)[C@]1(C)O [Azithromycin, azithromycin]
MCC ([3]; McCoy cells): 8 µg/mL
MCC3 ([3]; McCoy cells): 64 µg/mL
MCC1 (shell vial) [4]: 4 to 8 µg/mL
MCC3 (shell vial) [4]: 64 µg/mL
MCC (microtiter) [4]: 0.25 µg/mL
MCC3 (shell vial) [6, 10]: 64 µg/mL
MCC (microtiter) [6, 10]: 0.25 to 0.5 µg/mL
MCC (shell vial) [6, 10]: >8 µg/mL
MCC3 (shell vial) [6, 12]: 64 µg/mL
MCC (microtiter) [6, 12]: 0.25 to 0.5 µg/mL
MCC (shell vial) [6, 12]: >8 µg/mL
MCC3 (shell vial) [6, 13]: 64 µg/mL
MCC (microtiter) [6, 13]: 0.25 to 0.5 µg/mL
MCC (shell vial) [6, 13]: >8 µg/mL
MCC3 (shell vial) [6, 14]: 64 µg/mL
MCC (microtiter) [6, 14]: 0.25 to 0.5 µg/mL
MCC (shell vial) [6, 14]: >8 µg/mL
MCC3 (shell vial) [6, 15]: 64 µg/mL
MCC (microtiter) [6, 15]: 0.25 to 0.5 µg/mL
MCC (shell vial) [6, 15]: >8 µg/mL

CN(C)[C@@H]1C(O)=C(C(N)=O)C(=O)[C@@]2(O)C(O)=C3C(=O)c4c(O)cccc4[C@@](C)(O)[C@H]3C[C@@H]12 [Tetracycline, tetracycline]
MCC [3]: 16 µg/mL
MCC3 [3]: 128 µg/mL
MCC3/MIC [3]: 128
MIC [3]: 250 ng/mL
MIC ([9]; Chlamydia trachomatis): 250 ng/mL (≈ 563 nM)

— patent publication US20040029254A1, “Method of screening anti-bacterial agents for effectiveness in treating persistant intracellular infections” (University of Washington, priority 2002, published 2004)
